54 compounds from US20100256109A1, “Azetidines As EP2 Antagonists” (priority 2007, published 2010) can be followed below.

A word on the Ki: it is the dissociation constant of the complex between target and ligand, obtained from inhibition or displacement.

Each structure is given as a SMILES string.

The experiment deals with T1, recombinant human EP-2 receptor (Homo sapiens, UniProt P43116).
T1 construct: stably transfected with full length cDNA encoding human Prostaglandin E2; expressed in transfected cells
T1 sequence (P43116 whole entry): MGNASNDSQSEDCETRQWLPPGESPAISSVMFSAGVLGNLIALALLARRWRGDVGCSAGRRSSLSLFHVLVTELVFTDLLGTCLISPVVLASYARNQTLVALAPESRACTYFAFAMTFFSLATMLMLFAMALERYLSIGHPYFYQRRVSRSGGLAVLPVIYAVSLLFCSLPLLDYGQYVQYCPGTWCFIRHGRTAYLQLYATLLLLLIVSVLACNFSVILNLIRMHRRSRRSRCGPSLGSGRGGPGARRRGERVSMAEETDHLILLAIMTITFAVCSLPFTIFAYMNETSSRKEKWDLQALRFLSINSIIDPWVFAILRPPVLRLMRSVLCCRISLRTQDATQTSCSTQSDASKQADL
Briefly: In vitro antagonist potency against recombinant human prostaglandin E2 (EP-2) receptor in CHO cells (cAMP). In kind it is cell-based. To be noted: CHO cells expressing recombinant human EP-2 receptor, stimulated with PGE2 5 nM; cAMP readout; Ki from IC50 by Cheng-Prusoff; read-out: EP2 Ki. Here is the method: 1.0 Measurement of In Vitro Antagonist Potency (IC50) of Compounds Against Recombinant Human Prostaglandin E2 Receptor in CHO Cells.
The prostaglandin E2 (EP-2) receptor is Gs coupled and agonism of the receptor by PGE2 results in activation of intracellular adenylate cyclase enzymes that synthesise the second messenger signalling molecule, adenosine 3′,5′-cyclic monophosphate (cAMP). CHO cells expressing the recombinant human EP-2 receptor are stimulated with PGE2 (5 nM) equivalent to approximately […] values to give the maximal cAMP signal. Decreases in cAMP levels following treatment of stimulated recombinant EP-2 cells with potential antagonist compounds were measured and potency (IC50) calculated as follows.
A Chinese hamster ovary (CHO) cell line stably transfected with full length cDNA encoding human Prostaglandin E2 was established using standard molecular biology methods. Test compounds were dissolved in dimethyl sulphoxide (DMSO) at 4 mM. 11 point half log unit increment dilution series of test compound were prepared in DMSO then diluted 1 in 40 in a buffer comprised of phosphate buffered saline (PBS) and 0.05% pluronic F-127 surfactant. Freshly cultured cells at 80-90% confluence were harvested and re-suspended in 90% growth media/10% DMSO. The cells were frozen using a planar freezer and stored in frozen aliquots in cryovials in liquid nitrogen until the day of the experiment. A vial of cells was defrosted in a 37° C. water bath for 2 min, then transferred to 10 ml of Dulbecco's Modified Eagle's Medium (DMEM). The cells were then centrifuged for 5 min at 1000 g and the pellet re-suspended at 1,000,000 cells/ml in DMEM. 5,000 cells (5 ul) were added to 5 ul of the compound dilution series in a 384 well assay plate and pre-incubated for 30 min at 37° C. 5 ul of agonist (15 nM PGE2 in PBS to give 5 nM FAC) was added and plates further incubated for 90 min at 37° C. The relative cAMP concentration in each well was then measured using a β-galactosidase enzyme fragment complementation method purchased in kit form as the Discoverx cAMP II kit from GE Healthcare, UK. […] Sigmoidal curves were fitted to plots of log10 inhibitor concentration vs. percent effect. IC50 estimates were determined as the concentration of test compound giving an effect half way between the bottom and top asymptotes of the sigmoidal dose response curve. Each experiment included an IC50 determination for the literature compound as a standard to track assay consistency and allow fair comparison between values obtained in different experiments. The EC50 of PGE2 is used in combination with the ligand concentration in the assay to determine Ki values for antagonist dose responses using the Cheng-Prusoff equation. Consequently an agonist dose response curve is carried out for each experiment using the same incubation as the antagonist plate.
In the case of `O=C(c1ccc(F)cc1)N1CC(Cn2nnc(-c3ccccc3C(F)(F)F)n2)(C(=O)O)C1` [Example 15], the inhibition constant (Ki) stood at 733 nM.
The figure for `O=C(c1ccc(F)cc1)N1CC(Cn2nnc(-c3ccc(Cl)cc3)n2)(C(=O)O)C1` [Example 25] is 20 nM; for `COc1cc(OC)cc(C(=O)N2CC(Cn3nnc(-c4ccc(OC)c(OC)c4)n3)(C(=O)O)C2)c1` [Example 66] it is 222 nM; for `O=C(c1ccc(F)cc1)N1CC(Cn2nnc(-c3ccccc3Cl)n2)(C(=O)O)C1` [Example 14] it is 220 nM.
The figure for `Cc1cccc(-c2nnn(CC3(C(=O)O)CN(C(=O)c4ccc(F)cc4)C3)n2)c1` [Example 17] is 14.8 nM.
The figure for `O=C(Nc1cccc(F)c1)N1CC(Cn2nnc(-c3ccc(Cl)s3)n2)(C(=O)O)C1` [Example 71] is 519 nM.
For the compound `Cc1ccc(C(=O)N2CC(Cn3nnc(-c4c(F)cccc4F)n3)(C(=O)O)C2)cc1` [Example 59], the Ki turned out to be 57.9 nM.
The value for `COc1cccc(C(=O)N2CC(Cn3nnc(Cc4c(F)cccc4Cl)n3)(C(=O)O)C2)c1` [Example 57] was 959 nM; that for `COc1cccc(C(=O)N2CC(Cn3nnc(-c4ccc(C(C)(C)C)cc4)n3)(C(=O)O)C2)c1` [Example 56] was 176 nM; that for `O=C(c1ccccc1)N1CC(Cn2nnc(-c3ccc(Cl)s3)n2)(C(=O)O)C1` [Example 50] was 61.4 nM.
The value for `CCOc1ccccc1C(=O)N1CC(Cn2nnc(-c3cccc(F)c3)n2)(C(=O)O)C1` [Example 52] was 446 nM; that for `O=C(c1c(F)cccc1F)N1CC(Cn2nnc(Cc3ccc(C(F)(F)F)cc3)n2)(C(=O)O)C1` [Example 63] was 1960 nM.
The value for `O=C(c1ccccc1)N1CC(Cn2nnc(-c3cccc(F)c3)n2)(C(=O)O)C1` [Example 47] was 152 nM.
As to `O=C(Nc1cccc(Cl)c1Cl)N1CC(Cn2nnc(-c3ccccc3)n2)(C(=O)O)C1` [Example 67, 1-{[(2,3-dichlorophenyl)amino]carbonyl}-3-[(5-phenyl-2H-tetrazol-2-yl)methyl]azetidine-3-carboxylic acid], the inhibition constant (Ki) worked out at 130 nM.
The figure for `COc1ccccc1-c1nnn(CC2(C(=O)O)CN(C(=O)c3ccc(F)cc3)C2)n1` [Example 16] is 442 nM; for `COc1cc(OC)cc(C(=O)N2CC(Cn3nnc(-c4ccc(C(F)(F)F)cc4)n3)(C(=O)O)C2)c1` [Example 46, 1-(3,5-Dimethoxybenzoyl)-3-({5-[4-(trifluoromethyl)phenyl]-2H-tetrazol-2-yl}methyl)azetidine-3-carboxylic acid] it is 44.9 nM; for `COc1cccc(C(=O)N2CC(Cn3nnc(-c4ccc(OC)c(OC)c4)n3)(C(=O)O)C2)c1` [Example 58] it is 76.3 nM.
The value for `O=C(c1ccc(F)cc1)N1CC(Cn2nnc(-c3cccc(Oc4ccccc4)c3)n2)(C(=O)O)C1` [Example 21] was 141 nM; that for `CCOc1ccccc1C(=O)N1CC(Cn2nnc(Cc3c(F)cccc3Cl)n2)(C(=O)O)C1` [Example 54] was 783 nM; that for `O=C(c1ccc(Cl)cc1)N1CC(Cn2nnc(-c3ccc(Cl)cc3)n2)(C(=O)O)C1` [Example 6] was 2.42 nM.
The value for `O=C(c1ccc(Cl)cc1)N1CC(Cn2nnc(-c3cccc(F)c3)n2)(C(=O)O)C1` [Example 3] was 11.1 nM; that for `O=C(c1ccc(Cl)cc1)N1CC(Cn2nnc(-c3ccc(Cl)c(Cl)c3)n2)(C(=O)O)C1` [Example 9] was 0.864 nM.
Regarding `CCC(=O)Nc1ccc(-c2nnn(CC3(C(=O)O)CN(C(=O)c4ccc(Cl)cc4)C3)n2)cc1` [Example 7], the Ki was found to be 0.816 nM.
The figure for `CCc1ccccc1NC(=O)N1CC(Cn2nnc(-c3cccc(F)c3)n2)(C(=O)O)C1` [Example 69] is 440 nM; for `Cc1ccc(-c2nnn(CC3(C(=O)O)CN(C(=O)c4ccc(Cl)cc4)C3)n2)cc1` [Example 4] it is 1.45 nM.
The figure for `O=C(c1ccc(F)cc1)N1CC(Cn2nnc(-c3c(F)cccc3F)n2)(C(=O)O)C1` [Example 42] is 262 nM.
The value for `COc1cc(OC)cc(C(=O)N2CC(Cn3nnc(-c4c(F)cccc4F)n3)(C(=O)O)C2)c1` [Example 65] was 230 nM; that for `CCC(=O)Nc1ccc(-c2nnn(CC3(C(=O)O)CN(C(=O)c4ccc(F)cc4)C3)n2)cc1` [Example 32] was 10.3 nM.
`O=C(c1ccc(F)cc1)N1CC(Cn2nnc(-c3ccc(Cl)cc3Cl)n2)(C(=O)O)C1` [Example 38]: the inhibition constant (Ki) turned out to be 27 nM.
The value for `Cc1ccc(-c2nnn(CC3(C(=O)O)CN(C(=O)c4ccc(Cl)cc4)C3)n2)cc1Cl` [Example 8] was 0.423 nM.
The value for `COc1ccc(-c2nnn(CC3(C(=O)O)CN(C(=O)c4cccc(F)c4)C3)n2)cc1OC` [Example 55] was 453 nM.
The value for `O=C(c1ccc(F)cc1)N1CC(Cn2nnc(-c3ccc(OC(F)F)cc3)n2)(C(=O)O)C1` [Example 30] was 14.7 nM.
`COc1cccc(-c2nnn(CC3(C(=O)O)CN(C(=O)c4ccc(F)cc4)C3)n2)c1` [Example 20]: the Ki worked out at 11.6 nM.
The figure for `COc1ccc(-c2nnn(CC3(C(=O)O)CN(C(=O)c4ccc(F)cc4)C3)n2)cc1` [Example 28] is 10.8 nM.
The figure for `COc1ccc(-c2nnn(CC3(C(=O)O)CN(C(=O)c4c(F)cccc4F)C3)n2)cc1OC` [Example 64] is 230 nM; for `O=C(c1ccc(F)cc1)N1CC(Cn2nnc(-c3cc(C(F)(F)F)cc(C(F)(F)F)c3)n2)(C(=O)O)C1` [Example 44] it is 133 nM.
The value for `O=C(c1ccc(Cl)cc1)N1CC(Cn2nnc(Cc3ccc(C(F)(F)F)cc3)n2)(C(=O)O)C1` [Example 60] was 645 nM; that for `O=C(c1ccc(F)cc1)N1CC(Cn2nnc(-c3ccccc3F)n2)(C(=O)O)C1` [Example 13] was 87.3 nM; that for `CCOc1ccccc1C(=O)N1CC(Cn2nnc(-c3ccc(C(F)(F)F)cc3)n2)(C(=O)O)C1` [Example 53] was 32.5 nM.
Regarding `O=C(c1ccccc1)N1CC(Cn2nnc(-c3c(F)cccc3F)n2)(C(=O)O)C1` [Example 48], the Ki stood at 325 nM.
The figure for `O=C(Nc1cccc(Cl)c1)N1CC(Cn2nnc(-c3cccc(F)c3)n2)(C(=O)O)C1` [Example 70] is 386 nM; for `O=C(c1ccc(F)cc1)N1CC(Cn2nnc(-c3ccc(F)c(F)c3)n2)(C(=O)O)C1` [Example 41] it is 66.8 nM; for `O=C(c1ccc(F)cc1)N1CC(Cn2nnc(-c3ccc(F)cc3)n2)(C(=O)O)C1` [Example 26] it is 74.8 nM.
The value for `COc1cccc(NC(=O)N2CC(Cn3nnc(-c4cccc(F)c4)n3)(C(=O)O)C2)c1` [Example 68, 3-{[5-(3-fluorophenyl)-2H-tetrazol-2-yl]methyl}-1-{[(3-methoxyphenyl)amino]carbonyl}azetidine-3-carboxylic acid] was 303 nM; that for `COc1ccc(C(=O)N2CC(Cn3nnc(-c4ccc(OC)c(OC)c4)n3)(C(=O)O)C2)cc1` [Example 62] was 25.2 nM; that for `O=C(c1ccc(F)cc1)N1CC(Cn2nnc(-c3cccc(Cl)c3Cl)n2)(C(=O)O)C1` [Example 39] was 39.9 nM.
The figure for `CCOc1ccccc1C(=O)N1CC(Cn2nnc(-c3ccccc3)n2)(C(=O)O)C1` [Example 51] is 538 nM; for `O=C(c1ccccc1)N1CC(Cn2nnc(-c3ccccc3)n2)(C(=O)O)C1` [Example 1, 1-Benzoyl-3-[(5-phenyl-2H-tetrazol-2-yl)methyl]azetidine-3-carboxylic acid] it is 225 nM.
As for `CCc1ccc(-c2nnn(CC3(C(=O)O)CN(C(=O)c4ccc(F)cc4)C3)n2)cc1` [Example 23], the Ki came out at 1.37 nM.
The value for `O=C(c1ccc(Cl)cc1)N1CC(Cn2nnc(-c3cc(Cl)cc(Cl)c3)n2)(C(=O)O)C1` [Example 10] was 1.02 nM; that for `Cc1ccccc1-c1nnn(CC2(C(=O)O)CN(C(=O)c3ccc(F)cc3)C2)n1` [Example 12] was 77.8 nM.
The value for `O=C(c1ccc(Cl)cc1)N1CC(Cn2nnc(-c3cccc(Cl)c3)n2)(C(=O)O)C1` [Example 2] was 3.51 nM; that for `O=C(c1ccc(F)cc1)N1CC(Cn2nnc(-c3cc(F)cc(Cl)c3)n2)(C(=O)O)C1` [Example 43] was 13.7 nM; that for `COc1ccc(-c2nnn(CC3(C(=O)O)CN(C(=O)c4ccccc4)C3)n2)cc1OC` [Example 49] was 41.9 nM.
